This is an account of results in publication PMC12010006, “Subnanomolar MAS-related G protein-coupled receptor-X2/B2 antagonists with efficacy in human mast cells and disease models” (Signal Transduction and Targeted Therapy, 2025).

For test [1], the target named is T1, MRGPRX2 (Homo sapiens, UniProt Q96LB1).
T1 sequence (Q96LB1 1-330): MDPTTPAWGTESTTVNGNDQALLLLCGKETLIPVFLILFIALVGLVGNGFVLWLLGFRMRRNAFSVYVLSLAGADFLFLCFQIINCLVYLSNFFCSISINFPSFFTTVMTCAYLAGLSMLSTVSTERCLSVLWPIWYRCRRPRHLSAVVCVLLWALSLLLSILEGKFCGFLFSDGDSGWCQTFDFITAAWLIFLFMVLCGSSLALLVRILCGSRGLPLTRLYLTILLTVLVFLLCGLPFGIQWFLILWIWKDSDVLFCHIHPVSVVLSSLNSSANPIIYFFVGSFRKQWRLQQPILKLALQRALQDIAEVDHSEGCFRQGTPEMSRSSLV
Nature of the test: Surface expression of CD107a and CD63 (flow cytometry), LAD2 cells activated with SP. Conditions: 30 nM, 5 min; SP 300 nM. The format is cell-based. As to the method: The granule-associated proteins CD107a and CD63 externalize in the process of degranulation. Their quantification by flow cytometry is a reliable marker of mast cell activation, which is often used for the diagnosis of allergies and anaphylaxis in mast cell activation tests.[49],[50] Thus, the expression of CD107a and CD63 on the cell surface was determined to confirm the effects of PSB-172656 on SP-induced MRGPRX2-mediated degranulation. […] In addition to MRPGRX2, LAD2 cells also express a GPCR that is specifically activated by the complement component C3a.[51] Both receptors can activate Gαi/o proteins to promote MC activation.[48],[52]
MC degranulation was also measured by determining the cell surface expression of CD107a (Lysosomal-Associated Membrane Protein-1, LAMP-1) and CD63 (LAMP-3) after agonist stimulation.[48] LAD2 cells were preincubated with PSB-172656 or vehicle control for 5 min at 37 °C, then activated with SP (0.3 μM) and or C3a (3 nM) for 5 min at 37 °C. After 5 min of incubation, cells were fixed with 500 µL of 4% fixation buffer (Biolegend, Catalog 420801) for 15 min at room temperature. […] Cell surface expression of CD107a and CD63 was measured from the zombie-yellow negative population by a BD LSR II flow cytometer (San Jose, CA, USA) and analyzed by FlowJo software version 10.7.2 (Tree Star Inc., Ashland, OR, USA).[48],[50]

Test [2] addresses T1, MRGPRX2. Kind of test: Degranulation (β-hexosaminidase release), RBL-MRGPRX2 cells. The format is cell-based. As to the method:
(§1) Having a competitive MRGPRX2 antagonist with subnanomolar potency in hand, we next studied its effects on MCs. Activation of MRGPRX2, which is highly expressed in skin MCs, results in degranulation and histamine release.[19] We therefore investigated whether PSB-172656 inhibits MRGPRX2-mediated MC activation utilizing the rat MC line RBL-2H3 recombinantly expressing the human MRGPRX2 (designated RBL-MRGPRX2). These cells were treated with two different concentrations of PSB-172656 (100 nM and 300 nM), and then exposed to different MRGPRX2 agonists, namely C48/80 (0.3 µg/mL), SP (0.3 µM), and PAMP-12 (0.1 µM), respectively. Degranulation of the cells was assayed by β-hexosaminidase release measurements.
(§2) Fig. 5 PSB-172656 blocks MRGPRX2-induced mast cell degranulation without affecting IgE-mediated responses. a RBL-MRGPRX2 cells were incubated with control (vehicle) or preincubated with PSB-172656 (100 or 300 nM), followed by stimulation with C48/80 (0.3 µg/mL), substance P (SP; 0.3 µM), or PAMP-12 (0.1 µM), and β-hexosaminidase release was measured. RBL-MRGPRX2 cells were sensitized with monoclonal anti-dinitrophenyl antibody (DNP-specific IgE), and degranulation induced by 2,4-dinitrophenylated bovine serum albumin (DNP-BSA, 10 and 30 ng/mL) was measured without or after preincubation with PSB-172656 (0.1 and 0.3 µM). […] Data are expressed as means ± SEM of 3 biological replicates. Statistical significance was determined by two-way ANOVA (Tukey’s multiple comparisons)
Rat basophilic leukemia (RBL-2H3) cells that stably expressed the human MGPRGX2 (RBL-MRGPRX2) were grown in Dulbecco’s modified Eagle’s medium (DMEM) supplemented with 10% FBS, L-glutamine (2 mM), penicillin (100 IU/mL), and streptomycin (100 µg/mL).[42]
Degranulation as determined by β-hexosaminidase release was performed as described previously.[66],[67] Briefly, RBL-MRGPRX2 cells (5 × 10^4 cells/well) were seeded into 96-well cell culture plates. After 16 h, cells were treated with PSB-172656 or solvent for 5 min in HEPES buffer containing 0.1% bovine serum albumin (BSA), and then activated with MRGPRX2 agonist (C48/80, SP, PAMP-12, or LL-37) for 30 min at 37 °C. For measurement of total β-hexosaminidase content, unstimulated cells were lyzed by Triton X-100 (0.1%). Aliquots (20 µL) of supernatant were incubated with 20 µL of 1 mM 4-nitrophenyl-N-acetyl-β-D-glucosaminide (PNAG) for 1 h at 37°C. Finally, the reaction was stopped by adding 250 µL of 0.1 M Na2CO3/0.1 M NaHCO3 buffer, and absorbance was determined with a Versamax microplate spectrophotometer (Molecular Devices, San José, CA) at a wavelength of 405 nm. The degranulation was quantitated as a percentage of β-hexosaminidase release by dividing the β-hexosaminidase in the sample by the total enzyme content. To test the antigen response, RBL-MRGPRX2 (5 × 10^4 cells/well) cells were sensitized with DNP-specific mouse IgE (SPE-7; 1 µg/mL). After 16 h, cells were preincubated in the absence or presence of respective concentrations of PSB-172656 for 5 min, followed by the stimulation of antigen (DNP-BSA, 10 and 30 ng/mL), and the degranulation was measured as described above. For degranulation in LAD2 cells, 1 × 10^4 cells/well were seeded into 96-well cell culture plates, incubated with or without PSB-172656 for 5 min, then with the MRGPRX2 agonist SP for 30 min, and degranulation was measured similarly.

Test [3] relates to IgE-mediated degranulation. Kind of test: IgE-mediated degranulation (DNP-BSA) of RBL-MRGPRX2 cells sensitized with DNP-specific IgE. The format is cell-based, rat. To be noted: 0.1 and 0.3 µM; DNP-BSA 10 and 30 ng/mL. As to the method: as §1
as §2, with “Statistical significance was determined by two-way ANOVA (Tukey’s multiple comparisons)” left out

On to `CCc1c(C(C)C)[nH]c2nc3cc(F)c(F)cc3n2c1=O` [Compound 24, 3-ethyl-7,8-difluoro-2-isopropylbenzo[4,5]imidazo [1,2-a] pyrimidin-4(1H)-one], for which the “effect on SP-induced expression of CD107a and CD63 on the cell surface” value at MRGPRX2 [1] was “completely prevented”. Further, the “effect on MC degranulation in response to C48/80” value at MRGPRX2 [2] (100 nM and 300 nM, C48/80 0.3 µg/mL) is given as “completely abolished”. At MRGPRX2 [2] (100 nM and 300 nM, PAMP-12 0.1 µM), the “effect on MC degranulation in response to PAMP-12” value is listed as “substantially inhibited”. In addition, the “effect on MC degranulation in response to SP” value on MRGPRX2 [2] (100 nM and 300 nM, SP 0.3 µM) is reported as “completely abolished”. In addition, the IC50 is 3.79 nM against MRGPRX2 [2] (versus C48/80 (0.3 µg/mL)), 8.12 nM at MRGPRX2 [2] (versus LL-37 (3 µM)), 11.7 nM against MRGPRX2 [2] (versus PAMP-12 (0.1 µM)) and 15.5 nM against MRGPRX2 [2] (versus SP (0.3 µM)). Further, the “effect on IgE-mediated degranulation induced by DNP-BSA” value in test [3] is on record as “did not inhibit”.
